Source: paper PMC11648915, “Identification and development of TRPM4 antagonists to counteract neuronal excitotoxicity” (iScience, 2024)
pEC50, pIC50: −log10 of the molar value. “And” between values parts separate entries of the source, which are not always exact repeats. Equal values may be shown once. Read-outs that look alike come from different tables or passages of the source. One block for each compound: values may come before it.

Key:
human TRPM4 = human TRPM4 (Homo sapiens, UniProt Q8TD43); assay: QPatch automated patch clamp on TRPM4-expressing HEK293 cells; assay type: cell-based; conditions: hsTRPM4-expressing HEK293 cells; for pEC50: read-out: TRPM4 EC50 (potentiator activity)
Description: QPatchHTX, an automated electrophysiology platform, was used in single hole mode. One day before use human TRPM4- or TRPM5-expressing HEK293 cells were seeded in a T75 flask at a density of 53k cells per cm^2 and at passages < 23. […] The extracellular solution was (in mM): CaCl2 (7), MgCl2 (2), KCl (5), HEPES (10), NaCl (70), NMDG (70); pH 7.4 with NaOH. The intracellular solution was (in mM): HEPES (10), NMDG (100), NaCl (50), EGTA (20), MgCl2 (1), CaCl2 (21); pH 7.2 with HCl. […] This protocol was repeated every 7 seconds. […] FFA was used as reference compound and applied cumulatively with each concentration incubating at a minimum of 20 voltage protocol runs (140 seconds) with the current after addition of FFA being calculated as full block. […] Each compound was measured at least 3 time independently.

human TRPM5 = molecular target: T1, human TRPM5 (Homo sapiens, UniProt Q9NZQ8); assay: QPatch automated patch clamp on TRPM5-expressing HEK293 cells; assay type: cell-based; conditions: hsTRPM5-expressing HEK293 cells
T1 sequence (Q9NZQ8 1-1165): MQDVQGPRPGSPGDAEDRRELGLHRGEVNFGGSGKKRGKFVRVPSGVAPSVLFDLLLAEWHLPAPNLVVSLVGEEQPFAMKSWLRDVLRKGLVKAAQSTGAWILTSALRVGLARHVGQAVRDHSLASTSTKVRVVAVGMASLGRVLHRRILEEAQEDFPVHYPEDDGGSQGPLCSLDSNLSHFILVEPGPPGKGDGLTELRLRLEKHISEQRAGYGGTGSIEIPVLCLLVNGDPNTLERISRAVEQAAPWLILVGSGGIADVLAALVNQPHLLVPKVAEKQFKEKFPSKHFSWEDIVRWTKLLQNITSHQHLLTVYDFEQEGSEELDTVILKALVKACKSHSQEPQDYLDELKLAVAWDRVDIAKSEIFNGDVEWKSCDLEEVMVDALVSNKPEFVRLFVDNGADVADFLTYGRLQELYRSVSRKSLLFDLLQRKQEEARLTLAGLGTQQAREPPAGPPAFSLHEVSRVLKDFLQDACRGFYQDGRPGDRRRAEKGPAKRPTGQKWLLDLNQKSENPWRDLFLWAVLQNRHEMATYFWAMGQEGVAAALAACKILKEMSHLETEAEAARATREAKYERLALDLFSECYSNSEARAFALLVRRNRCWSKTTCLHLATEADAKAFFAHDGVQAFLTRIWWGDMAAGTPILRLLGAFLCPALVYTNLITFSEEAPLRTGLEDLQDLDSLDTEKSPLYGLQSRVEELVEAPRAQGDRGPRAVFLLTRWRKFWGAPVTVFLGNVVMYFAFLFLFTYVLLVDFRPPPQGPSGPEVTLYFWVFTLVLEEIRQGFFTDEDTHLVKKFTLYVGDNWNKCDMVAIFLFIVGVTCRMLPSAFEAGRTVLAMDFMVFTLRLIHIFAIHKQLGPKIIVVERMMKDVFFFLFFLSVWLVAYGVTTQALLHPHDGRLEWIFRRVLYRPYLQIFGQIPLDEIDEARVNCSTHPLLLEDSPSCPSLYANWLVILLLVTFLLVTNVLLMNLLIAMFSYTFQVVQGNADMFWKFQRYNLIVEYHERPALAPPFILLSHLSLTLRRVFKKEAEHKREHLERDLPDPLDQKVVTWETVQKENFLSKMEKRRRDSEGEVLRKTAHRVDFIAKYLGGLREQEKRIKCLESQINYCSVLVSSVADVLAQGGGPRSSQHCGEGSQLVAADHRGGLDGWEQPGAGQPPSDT
Text: The counter screening phase involved the inclusion of hsTRPM5-expressing HEK293 cells, as closest homologue, and the parental HEK293 cell line to evaluate selectivity. […] Based on categorization of biological activity, mass spectrometry quality control, and aspects of medicinal chemistry, we prioritized 144 selective hsTRPM4 compounds. These compounds were then subjected to automated patch clamp electrophysiology measurements (QPatch[58]) to evaluate their activity profiles and IC50 values (Figures 1A, S1, and S2).
QPatchHTX, an automated electrophysiology platform, was used in single hole mode. One day before use human TRPM4- or TRPM5-expressing HEK293 cells were seeded in a T75 flask at a density of 53k cells per cm^2 and at passages < 23. For QPatch assays, cells were harvested and re-suspended in SFM (Gibco, 11686029). The extracellular solution was (in mM): CaCl2 (7), MgCl2 (2), KCl (5), HEPES (10), NaCl (70), NMDG (70); pH 7.4 with NaOH. The intracellular solution was (in mM): HEPES (10), NMDG (100), NaCl (50), EGTA (20), MgCl2 (1), CaCl2 (21); pH 7.2 with HCl. After break-in, channels were consistently open and current through the channels could be observed at a voltage ramp from –100 mV to +100 mV over 500 ms. This protocol was repeated every 7 seconds. After saline and vehicle application, the channel was desensitized and residual current was used as baseline. FFA was used as reference compound and applied cumulatively with each concentration incubating at a minimum of 20 voltage protocol runs (140 seconds) with the current after addition of FFA being calculated as full block. […] Each compound was measured at least 3 time independently.

[1] = In vivo pharmacokinetics after single i.p. or i.v. dose; conditions: female, C57BL/6J, mouse
Description: Next, to assess in vivo availability of the Series 1–3 compounds, we evaluated drug metabolism and pharmacokinetics (DMPK). We measured compound concentrations in plasma, heart, and brain at several time points after intraperitoneal (i.p.) or intravenous (i.v.) single-dose injections.
Half-life and bioavailability were calculated by noncompartmental analysis using the R package PK[84] (v1.3-6).

human TRPM4, sequence (Q8TD43 whole entry): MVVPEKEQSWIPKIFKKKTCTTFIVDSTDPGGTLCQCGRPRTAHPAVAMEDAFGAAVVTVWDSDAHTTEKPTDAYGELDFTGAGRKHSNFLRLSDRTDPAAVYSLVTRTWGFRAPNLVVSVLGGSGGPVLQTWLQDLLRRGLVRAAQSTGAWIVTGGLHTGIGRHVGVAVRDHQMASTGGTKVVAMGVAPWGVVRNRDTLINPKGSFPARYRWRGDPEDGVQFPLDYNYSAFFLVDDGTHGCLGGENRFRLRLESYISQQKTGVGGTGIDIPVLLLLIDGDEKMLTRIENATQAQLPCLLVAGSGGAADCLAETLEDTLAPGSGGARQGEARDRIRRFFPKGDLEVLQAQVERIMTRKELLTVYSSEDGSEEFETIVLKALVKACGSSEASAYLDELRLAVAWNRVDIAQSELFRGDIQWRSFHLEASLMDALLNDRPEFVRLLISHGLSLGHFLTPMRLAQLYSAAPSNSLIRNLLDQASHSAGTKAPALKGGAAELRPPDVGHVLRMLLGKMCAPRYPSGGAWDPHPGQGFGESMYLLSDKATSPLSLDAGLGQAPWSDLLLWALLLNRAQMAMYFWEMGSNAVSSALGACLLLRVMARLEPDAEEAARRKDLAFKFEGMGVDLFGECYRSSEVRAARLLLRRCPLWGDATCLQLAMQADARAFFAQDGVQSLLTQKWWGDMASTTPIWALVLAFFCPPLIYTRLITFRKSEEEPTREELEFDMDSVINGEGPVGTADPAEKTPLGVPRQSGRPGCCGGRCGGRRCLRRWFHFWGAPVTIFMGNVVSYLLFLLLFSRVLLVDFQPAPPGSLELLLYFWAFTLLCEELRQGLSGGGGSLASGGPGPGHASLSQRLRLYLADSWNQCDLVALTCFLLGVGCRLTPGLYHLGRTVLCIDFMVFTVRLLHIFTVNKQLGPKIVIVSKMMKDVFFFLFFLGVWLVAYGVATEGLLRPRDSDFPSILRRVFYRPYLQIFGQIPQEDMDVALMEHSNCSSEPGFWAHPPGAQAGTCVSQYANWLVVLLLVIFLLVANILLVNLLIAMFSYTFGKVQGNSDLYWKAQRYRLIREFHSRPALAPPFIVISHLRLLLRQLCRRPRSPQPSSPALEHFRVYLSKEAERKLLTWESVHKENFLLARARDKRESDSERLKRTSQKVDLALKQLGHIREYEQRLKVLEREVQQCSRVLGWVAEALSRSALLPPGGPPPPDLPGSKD

Structure (SMILES): c1ccc(-c2ccccc2NCc2nc3ccccc3o2)cc1 [CMP009]
pIC50 (human TRPM4): 6.26

Structure (SMILES): O=c1cc(NC2CCCCCC2)nc2ccc(Cl)cn12 [CMP111]
pIC50 (human TRPM4): 6.77 and 6.96

pIC50 (human TRPM5): < 4.52
Structure (SMILES): O=C(O)c1cc(Br)ccc1NS(=O)(=O)c1ccc(Cl)cc1 [CMP116]
pIC50 (human TRPM4): 5.73

Structure (SMILES): c1ccc(CSCc2cn3ccsc3n2)cc1 [CMP133]
pIC50 (human TRPM4): 6.55

half-life ([1]; brain, ip, read-out: Brain half-life (converted)): 3.9 h | half-life ([1]; brain, iv, read-out: Brain half-life (converted)): 4.2 h | half-life ([1]; heart, ip, read-out: Heart half-life (converted)): 3.3 h | half-life ([1]; heart, iv, read-out: Heart half-life (converted)): 3.5 h | half-life ([1]; plasma, ip, read-out: Plasma half-life (converted)): 2.9 h | half-life ([1]; plasma, iv, read-out: Plasma half-life (converted)): 2.8 h
Structure (SMILES): Cc1noc(-c2csc(S(=O)(=O)Nc3ccccc3C(F)(F)F)c2)c1C [CMP157]
pIC50 (human TRPM4): 6.44

Structure (SMILES): Nc1nnc(Cc2cccc(Br)c2)s1 [CMP225]
pEC50 (human TRPM4): 5.87

Structure (SMILES): Oc1ccccc1NCc1nc2ccccc2o1 [CMP311]
pEC50 (human TRPM4): 5.49

Structure (SMILES): COc1ccccc1-c1ccccc1NCc1nc2ccccc2o1 [CMP320]
pIC50 (human TRPM4): 6.09
